Laboratory results from patent publication US20120122679A1, “MESOIONIC PESTICIDES” (E. I. Du Pont De Nemours and Company, priority 2009, published 2012).

System: green peach aphid (Myzus persicae)
Assay: Test F: control of green peach aphid on radish plant, contact and/or systemic
Assay type: in vivo
Conditions: sprayed at 50 ppm; assessed after 6 days
Protocol: Test compounds were formulated using a solution containing 10% acetone, 90% water and 300 ppm X-77® Spreader Lo-Foam Formula non-ionic surfactant containing alkylarylpolyoxyethylene, free fatty acids, glycols and isopropanol (Loveland Industries, Inc. Greeley, Colorado, USA). The formulated compounds were applied in 1 mL of liquid through a SUJ2 atomizer nozzle with ⅛ JJ custom body (Spraying Systems Co. Wheaton, Ill., USA) positioned 1.27 cm (0.5 inches) above the top of each test unit. Test compounds were sprayed at 250 and/or 50 ppm, and replicated three times. After spraying of the formulated test compound, each test unit was allowed to dry for 1 h and then a black, screened cap was placed on top. The test units were held for 6 days in a growth chamber at 25° C. and 70% relative humidity. Plant feeding damage was then visually assessed based on foliage consumed.
For evaluating control of green peach aphid (Myzus persicae) through contact and/or systemic means, the test unit consisted, of a small open container with a 12-15-day-old radish plant inside. […]
Test compounds were formulated and sprayed at 250 ppm and/or 50 ppm as described for Test A. The applications were replicated three times. […] Each test unit was then visually assessed for insect mortality.

O=c1c(SC(F)(F)F)c([O-])[n+](Cc2cnc(Cl)s2)c2ccccn12 [Compound 102]
mortality (at least 80% mortality): at least 80%
